Earlier results on one molecule are cited in patent publication US12223643B2, “Machine-learning system for diagnosing disorders and diseases and determining drug responsiveness” (Sanford Burnham Prebys Medical Discovery Institute, priority 2019, dated 2025).

The subject of this series is bipolar disorder (BPD) patients.

Regarding `O=C([O-])[O-].[Li+].[Li+]` [Lithium carbonate], the “patients respond to lithium treatment” value is on record as “approximately 35%” and the risk of suicide result was “reduce the risk of suicide”.
